23 compounds from paper PMC2763345 (PLoS Pathogens, 2009) can be followed below.

Converted amounts (≈) assume the structure as drawn. Like-named read-outs stand apart in the source and are kept apart here. Some results are limits rather than exact numbers.

The test system of data set [1] is M. tuberculosis H37Rv-GFP. The experiment in a line: microbe, parasite or virus in culture. The format is cell-based, Mycobacterium tuberculosis. The settings on record: for MIC: Mycobacterium tuberculosis, H37RV.
Data set [2] relates to M. tuberculosis H37Rv-GFP in Raw264.7 macrophages. The experiment in a line: microbe, parasite or virus in culture. The settings on record: for MIC: Mycobacterium tuberculosis, H37RV. The format is cell-based, Mycobacterium tuberculosis.
The subject of another data set is BCG Wild Type. The experiment in a line: microbe, parasite or virus in culture. The format is cell-based, M. bovis BCG.
Data set [3] deals with M. smegmatis mc2 155 Wild Type. The experiment in a line: microbe, parasite or virus in culture. The format is cell-based.
Data set [4] relates to M. tuberculosis H37Rv. The format is cell-based.
A further data set can be described thus: in vitro. The settings on record: C57BL/6, mouse.
Data set [5] has as its system Acinetobacter baumannii, Escherichia coli, Enterobacter cloacae, E. aerogenes, Klebsiella oxytoca, Pseudomonas aeruginosa, Salmonella enteridis, Vibrio mimicus. The format is cell-based, Gram-negative bacteria.
Another data set has as its system M. smegmatis mc2 155. The format is cell-based.
The subject of a further data set is BCG Pasteur-Tokyo. The format is cell-based, M. bovis BCG.
A further data set relates to C. jeikeium. The format is cell-based, Corynebacterium jeikeium.
The test system of data set [6] is M. tuberculosis H37Rv. The format is cell-based. This is another data set of the same source.
The test system of data set [7] is M. tuberculosis H37Ra. The format is cell-based.
Data set [8] has as its system Candida albicans, C. glabrata, C. parapsilosis. The format is cell-based, Fungi.
For data set [9], the system named is Staphylococcus aureus, S. epidermis, S. capitis, S. xylosus, Micrococcus luteus, Listeria innocua, Lactobacillus gallinarum, group G Streptococcus …. The format is cell-based, Gram-positive bacteria.
Data set [10] relates to M. tuberculosis H37Ra. The format is cell-based. This is another data set of the same source.
Another data set relates to C. striatum. The format is cell-based, Corynebacterium striatum.
[11] abbreviates: read-out: In vitro broth growth MIC (µM).
The mark [12] stands for this setting: read-out: In vitro broth growth MIC (µg/mL).
[13] abbreviates: 120 h, read-out: Intracellular macrophage growth MIC (µM).
Where [14] appears, read: 120 h, read-out: Intracellular macrophage growth MIC (µg/mL).

In the case of `O=C(NCCOCc1ccccc1F)c1cc([N+](=O)[O-])cc([N+](=O)[O-])c1` [Compound 5], the MIC in data set [1] (read-out: MIC Extracellular) was 0.08 µM; in data set [2] (read-out: MIC Intracellular), 0.2 µM.

For the compound `O=C(NCCOc1ccccc1F)c1cc([N+](=O)[O-])cc([N+](=O)[O-])c1` [Compound 9], the MIC came out at 0.2 µM in [1] (read-out: MIC Extracellular) and 0.7 µM in data set [2] (read-out: MIC Intracellular).

With `CC(=O)O[C@H]1C[C@@]2(C)[C@@H](C[C@@H](O)[C@H]3[C@@]4(C)CC[C@@H](O)[C@@H](C)[C@@H]4CC[C@@]32C)/C1=C(\CCC=C(C)C)C(=O)O` [Fusidic Acid], the MIC in data set [1] (setting [11]) is 1 µM; in [1] (setting [12]), 0.5 µg/mL; in data set [2] (setting [13]), 20 µM; in [2] (setting [14]), 10 µg/mL. Besides, the “Intracellular macrophage growth Cell toxicity” value in the data set with Raw264.7 macrophages (mouse) was more than 20 µM.

For `CCc1cc(C(N)=S)ccn1` [Ethionamide], the MIC in data set [1] (setting [11]) was 6 µM; in data set [1] (setting [12]) it was 1 µg/mL; in data set [2] (setting [13]), 6 µM; in data set [2] (setting [14]) it was 1 µg/mL. The “Intracellular macrophage growth Cell toxicity” value in the data set on Raw264.7 macrophages (mouse) is reported as 120 µM. Besides, the “differences in MIC between the two assays (broth and intracellular)” value (shortened to “differences”) in data set [2] was “No major differences”.

Regarding `CO[C@H]1/C=C/O[C@@]2(C)Oc3c(C)c(O)c4c(O)c(c(/C=N/N5CCN(C)CC5)c(O)c4c3C2=O)NC(=O)/C(C)=C\C=C\[C@H](C)[C@H](O)[C@@H](C)[C@@H](O)[C@@H](C)[C@H](OC(C)=O)[C@@H]1C` [Rifampin], the “MIC” value against BCG Wild Type came out at 0.31 µg/mL (≈ 0.377 µM); in data set [1] (setting [11]), 0.01 µM; in data set [1] (setting [12]), 0.01 µg/mL; in [2] (setting [13]), 2.9 µM; in data set [2] (setting [14]) it was 2.4 µg/mL; in data set [3], 0.31 µg/mL (≈ 0.377 µM). In addition, in the data set on Raw264.7 macrophages (mouse), the “Intracellular macrophage growth Cell toxicity” value was 24 µM.

As for `COc1ccc(O[C@H]2CCN(C(=O)c3cc([N+](=O)[O-])cc([N+](=O)[O-])c3)C2)cc1` [Compound 10-(S)], the MIC worked out at 0.08 µM in [1] (read-out: MIC Extracellular) and 20 µM in data set [2] (read-out: MIC Intracellular).

In the case of `NCC[C@H](O)C(=O)N[C@@H]1C[C@H](N)[C@@H](O[C@H]2O[C@H](CN)[C@@H](O)[C@H](O)[C@H]2O)[C@H](O)[C@H]1O[C@H]1O[C@H](CO)[C@@H](O)[C@H](N)[C@H]1O` [Amikacin], the MIC was 0.07 µM in data set [1] (setting [11]), 0.04 µg/mL in [1] (setting [12]), more than 150 µM in data set [2] (setting [13]) and more than 20 µg/mL in data set [2] (setting [14]). Also, the “Intracellular macrophage growth Cell toxicity” value in the data set with Raw264.7 macrophages (mouse) is listed as more than 150 µM.

Turning to `COc1ccc(O[C@H]2CCCN(C(=O)c3cc([N+](=O)[O-])cc([N+](=O)[O-])c3)C2)cc1` [Compound 12-(S)], the MIC in [1] (read-out: MIC Extracellular) is 6 µM; in data set [2] (read-out: MIC Intracellular) it was 20 µM.

Turning to `O=C(NCCOCc1cccc(Cl)c1)c1cc(NO)cc([N+](=O)[O-])c1` [Compound 3], the MIC in data set [1] (read-out: MIC Extracellular) and in data set [2] (read-out: MIC Intracellular) was more than 20 µM in each case.

Turning to `O=C(NCCOCc1cccc(C(F)(F)F)c1)c1cc([N+](=O)[O-])cc([N+](=O)[O-])c1` [Compound 6], the MIC in [1] (read-out: MIC Extracellular) and in [2] (read-out: MIC Intracellular) was 0.2 µM throughout.

`[H]/N=C(/N)N[C@H]1[C@H](O)[C@@H](O)[C@H](O[C@@H]2O[C@@H](C)[C@](O)(C=O)[C@H]2O[C@@H]2O[C@@H](CO)[C@H](O)[C@@H](O)[C@@H]2NC)[C@@H](N/C(N)=N\[H])[C@@H]1O` [Streptomycin]: the MIC is 1.5 µM in data set [1] (setting [11]), 0.9 µg/mL in data set [1] (setting [12]), more than 35 µM in data set [2] (setting [13]) and more than 20 µg/mL in data set [2] (setting [14]). Moreover, the “Intracellular macrophage growth Cell toxicity” value in the data set on Raw264.7 macrophages (mouse) is listed as more than 35 µM.

With `O=C(NCCOCc1cccc(Cl)c1)c1cccc([N+](=O)[O-])c1` [Compound 4], the MIC in [1] (read-out: MIC Extracellular) and in data set [2] (read-out: MIC Intracellular) was more than 20 µM each time.

Regarding `CO[C@H]1/C=C/O[C@@]2(C)Oc3c(C)c(O)c4c(c3C2=O)C2=NC3(CCN(CC(C)C)CC3)NC2=C(NC(=O)/C(C)=C\C=C\[C@H](C)[C@H](O)[C@@H](C)[C@@H](O)[C@@H](C)[C@H](OC(C)=O)[C@@H]1C)C4=O` [Rifabutin], the MIC in data set [1] (setting [11]) is 0.01 µM; in data set [1] (setting [12]), 0.01 µg/mL; in [2] (setting [13]), 0.11 µM; in data set [2] (setting [14]), 0.1 µg/mL. Further, the “Intracellular macrophage growth Cell toxicity” value in the data set with Raw264.7 macrophages (mouse) is more than 20 µM.

`O=[N+]([O-])c1cn2c(n1)OC[C@@H](OCc1ccc(OC(F)(F)F)cc1)C2` [PA-824]: the MIC was determined as 0.22 µM in data set [1] (setting [11]), 0.08 µg/mL in data set [1] (setting [12]), 0.22 µM in [2] (setting [13]) and 0.08 µg/mL in data set [2] (setting [14]). Moreover, the “Intracellular macrophage growth Cell toxicity” value with Raw264.7 macrophages (mouse) is more than 20 µM. Moreover, the “differences” value in [2] is reported as “No major differences”.

On to `O=C(NCCOCc1ccccc1)c1cc([N+](=O)[O-])cc([N+](=O)[O-])c1` [Compound 7, N-(2-(benzyloxy)ethyl)-3,5-dinitrobenzamide], for which the MIC stood at 0.25 µg/mL (≈ 0.724 µM) against BCG Wild Type (Mycobacterium tuberculosis variant bovis BCG, BCG); 0.2 µM in data set [1] (read-out: MIC Extracellular); 0.2 µM in [2] (read-out: MIC Intracellular); 0.25 µg/mL (≈ 0.724 µM) in data set [3] (Mycolicibacterium smegmatis, MC2155). In addition, the “Range of MICs for multiple strains” value in the data set on M. tuberculosis H37Rv [4] is 0.2 µM; in data set [5], more than 250 µM; in the data set on M. smegmatis mc2 155, 0.4 µM; in the data set on BCG Pasteur-Tokyo, 0.2 to 0.7 µM; with C. jeikeium, 2.7 µM; in the data set with M. tuberculosis H37Ra [7] it was 0.2 µM. For the same compound, the figures for the “Range of MICs for multiple strains” value (in data set [8]; in data set [9]; with C. striatum) were more than 250 µM, more than 250 µM and 27 µM, respectively. The same compound showed an IC50 in “in vitro” of 50 µM. Besides, the “bactericidal effect on M. tuberculosis” value with M. tuberculosis H37Rv [6] is “time-dependent”. In addition, the “effect on the synthesis of the arabinan domains of arabinogalactan (AG) and lipoarabinomannan (LAM)” value with M. tuberculosis H37Ra [10] was “clear-cut effect”. Further, the “effects on the biosynthesis of fatty acids, mycolic acids and/or other lipids” value in the data set on M. tuberculosis H37Ra [10] is listed as “no effects”.

`Nc1cc(C(=O)NCCOCc2cccc(Cl)c2)cc([N+](=O)[O-])c1` [Compound 2]: the MIC in [1] (read-out: MIC Extracellular) and in data set [2] (read-out: MIC Intracellular) was more than 20 µM in each case.

With `NC(=O)c1cnccn1` [Pyrazinamide], the MIC in [1] (setting [11]) was more than 150 µM; in [1] (setting [12]) it was more than 20 µg/mL; in data set [2] (setting [13]) it was more than 150 µM; in data set [2] (setting [14]), more than 20 µg/mL. For the same compound, the “Intracellular macrophage growth Cell toxicity” value in the data set with Raw264.7 macrophages (mouse) was more than 150 µM.

Take `CC[C@@H](CO)NCCN[C@@H](CC)CO` [Ethambutol]: the MIC in data set [1] (setting [11]) is 4.9 µM; in data set [1] (setting [12]) it was 1 µg/mL; in data set [2] (setting [13]), 4.9 µM; in data set [2] (setting [14]), 1 µg/mL. In the data set with Raw264.7 macrophages (mouse), the “Intracellular macrophage growth Cell toxicity” value is on record as more than 20 µM. The “differences” value in [2] is “No major differences”.

For the compound `C[C@H]1COc2c(N3CCN(C)CC3)c(F)cc3c(=O)c(C(=O)O)cn1c23` [Levofloxacin], the MIC in [1] (setting [11]) was 2.5 µM; in data set [1] (setting [12]), 0.9 µg/mL; in [2] (setting [13]), more than 20 µM; in data set [2] (setting [14]), more than 10 µg/mL. In addition, the “Intracellular macrophage growth Cell toxicity” value in the data set with Raw264.7 macrophages (mouse) is recorded as more than 20 µM.

In the case of `O=C(NCCOCc1cccc(Cl)c1)c1cc([N+](=O)[O-])cc([N+](=O)[O-])c1` [Compound 1], the MIC in data set [1] (read-out: MIC Extracellular) was 0.2 µM; in data set [2] (read-out: MIC Intracellular), 1 µM.

Turning to `NC(=O)c1c(NC(=O)C2CC2)sc2c1CCCC2` [AX20017], in [1], the “In vitro broth growth MIC (µM)” value is given as more than 20 µM and the “In vitro broth growth MIC (µg/mL)” value is more than 5 µg/mL. Besides, the “Intracellular macrophage growth Cell toxicity” value in the data set on Raw264.7 macrophages is given as more than 20 µM. In data set [2], the “Intracellular macrophage growth MIC (µM)” value is given as more than 20 µM and the “Intracellular macrophage growth MIC (µg/mL)” value was more than 5 µg/mL.

Turning to `COC(=O)c1ccc(O[C@H]2CCN(C(=O)c3cc([N+](=O)[O-])cc([N+](=O)[O-])c3)C2)cc1` [Compound 11-(S)], the values for the MIC in [1] (read-out: MIC Extracellular) and in [2] (read-out: MIC Intracellular) were 0.08 µM and more than 20 µM, respectively.

Consider `NNC(=O)c1ccncc1` [Isoniazid], for which the MIC in [1] (setting [11]) is 1.2 µM; in [1] (setting [12]) it was 0.16 µg/mL; in data set [2] (setting [13]), 1.2 µM; in [2] (setting [14]), 0.16 µg/mL. Also, the “Intracellular macrophage growth Cell toxicity” value in the data set with Raw264.7 macrophages (mouse) is more than 150 µM. Besides, the “differences” value in [2] is on record as “No major differences”.
